ChEMBL document CHEMBL5465560, “Selectivity Literature for EUbOPEN Chemogenomic Library” (2024)

Legend:
[1] = molecular target: T1, Phosphatidylinositol 5-phosphate 4-kinase type-2 gamma (Homo sapiens) (UniProt Q8TBX8); assay: Selectivity interaction (KinomeScan (DiscoverX)) EUB0001049a PIP4K2C; conditions: at 1 µM
T1 sequence (whole entry): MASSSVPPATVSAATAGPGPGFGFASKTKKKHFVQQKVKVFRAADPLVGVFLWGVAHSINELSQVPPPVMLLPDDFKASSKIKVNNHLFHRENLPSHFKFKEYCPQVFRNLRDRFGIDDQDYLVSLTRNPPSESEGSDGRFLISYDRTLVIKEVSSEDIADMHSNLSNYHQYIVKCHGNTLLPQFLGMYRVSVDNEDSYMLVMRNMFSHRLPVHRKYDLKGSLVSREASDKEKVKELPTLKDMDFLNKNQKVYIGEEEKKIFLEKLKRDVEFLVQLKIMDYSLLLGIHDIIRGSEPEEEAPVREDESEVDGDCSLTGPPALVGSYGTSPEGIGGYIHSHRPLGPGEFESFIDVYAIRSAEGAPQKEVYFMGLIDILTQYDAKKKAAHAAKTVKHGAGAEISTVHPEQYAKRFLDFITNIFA

[2] = molecular target: T2, Homeodomain-interacting protein kinase 4 (Homo sapiens) (UniProt Q8NE63); assay: Selectivity interaction (KinomeScan (DiscoverX)) EUB0001619a HIPK4; conditions: at 1 µM
T2 sequence (whole entry): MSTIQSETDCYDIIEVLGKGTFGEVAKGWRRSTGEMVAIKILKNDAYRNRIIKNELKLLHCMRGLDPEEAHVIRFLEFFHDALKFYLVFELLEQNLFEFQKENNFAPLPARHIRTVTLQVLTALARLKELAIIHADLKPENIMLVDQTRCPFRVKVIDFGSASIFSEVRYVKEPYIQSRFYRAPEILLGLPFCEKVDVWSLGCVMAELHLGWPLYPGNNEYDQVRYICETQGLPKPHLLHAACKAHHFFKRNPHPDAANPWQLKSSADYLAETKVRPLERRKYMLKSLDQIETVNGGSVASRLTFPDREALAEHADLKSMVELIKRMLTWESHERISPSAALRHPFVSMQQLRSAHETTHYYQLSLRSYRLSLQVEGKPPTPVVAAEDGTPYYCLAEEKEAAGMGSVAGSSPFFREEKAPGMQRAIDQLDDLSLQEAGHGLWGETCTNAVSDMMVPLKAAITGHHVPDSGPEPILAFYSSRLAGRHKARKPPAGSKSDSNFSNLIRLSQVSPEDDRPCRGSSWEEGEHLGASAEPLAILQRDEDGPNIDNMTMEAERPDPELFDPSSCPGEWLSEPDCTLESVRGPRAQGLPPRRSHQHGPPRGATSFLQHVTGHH

[3] = molecular target: T3, cGMP-dependent protein kinase 2 (Homo sapiens) (UniProt Q13237); assay: Selectivity interaction (KinomeScan (DiscoverX)) EUB0000618a PRKG2; conditions: at 10 µM
T3 sequence (whole entry): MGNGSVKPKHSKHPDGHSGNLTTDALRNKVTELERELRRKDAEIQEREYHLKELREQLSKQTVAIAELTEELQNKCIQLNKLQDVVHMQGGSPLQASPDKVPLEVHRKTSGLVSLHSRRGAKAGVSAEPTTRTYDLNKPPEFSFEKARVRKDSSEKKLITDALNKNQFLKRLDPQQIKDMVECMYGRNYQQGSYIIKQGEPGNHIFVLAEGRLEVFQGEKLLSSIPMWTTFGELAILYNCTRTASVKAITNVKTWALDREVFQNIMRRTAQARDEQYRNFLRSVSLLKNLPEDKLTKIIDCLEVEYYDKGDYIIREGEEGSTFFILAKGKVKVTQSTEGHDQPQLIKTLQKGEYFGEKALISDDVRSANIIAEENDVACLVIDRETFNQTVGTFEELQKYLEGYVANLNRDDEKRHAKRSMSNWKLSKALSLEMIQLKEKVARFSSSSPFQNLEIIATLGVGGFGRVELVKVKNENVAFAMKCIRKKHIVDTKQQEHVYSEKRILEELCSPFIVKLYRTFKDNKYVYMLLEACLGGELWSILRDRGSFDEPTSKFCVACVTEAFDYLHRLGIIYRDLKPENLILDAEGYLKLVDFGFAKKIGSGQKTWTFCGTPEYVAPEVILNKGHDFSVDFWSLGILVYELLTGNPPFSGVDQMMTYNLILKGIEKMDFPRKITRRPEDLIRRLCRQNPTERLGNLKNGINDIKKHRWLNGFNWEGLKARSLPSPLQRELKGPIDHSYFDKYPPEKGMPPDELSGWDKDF

[4] = molecular target: Serine/threonine-protein kinase Chk2 (Homo sapiens) (UniProt O96017); assay: Selectivity interaction (ActivX KiNativ screen (kinase selectivity in THP-1 cell lysates)) EUB0000639a CHEK2; type: subcellular; conditions: lysate, at 1 µM
[5] = molecular target: T4, Ephrin type-A receptor 8 (Homo sapiens) (UniProt P29322); assay: Selectivity interaction (KinomeScan (DiscoverX)) EUB0000092b EPHA8; conditions: at 10 µM
T4 sequence (whole entry): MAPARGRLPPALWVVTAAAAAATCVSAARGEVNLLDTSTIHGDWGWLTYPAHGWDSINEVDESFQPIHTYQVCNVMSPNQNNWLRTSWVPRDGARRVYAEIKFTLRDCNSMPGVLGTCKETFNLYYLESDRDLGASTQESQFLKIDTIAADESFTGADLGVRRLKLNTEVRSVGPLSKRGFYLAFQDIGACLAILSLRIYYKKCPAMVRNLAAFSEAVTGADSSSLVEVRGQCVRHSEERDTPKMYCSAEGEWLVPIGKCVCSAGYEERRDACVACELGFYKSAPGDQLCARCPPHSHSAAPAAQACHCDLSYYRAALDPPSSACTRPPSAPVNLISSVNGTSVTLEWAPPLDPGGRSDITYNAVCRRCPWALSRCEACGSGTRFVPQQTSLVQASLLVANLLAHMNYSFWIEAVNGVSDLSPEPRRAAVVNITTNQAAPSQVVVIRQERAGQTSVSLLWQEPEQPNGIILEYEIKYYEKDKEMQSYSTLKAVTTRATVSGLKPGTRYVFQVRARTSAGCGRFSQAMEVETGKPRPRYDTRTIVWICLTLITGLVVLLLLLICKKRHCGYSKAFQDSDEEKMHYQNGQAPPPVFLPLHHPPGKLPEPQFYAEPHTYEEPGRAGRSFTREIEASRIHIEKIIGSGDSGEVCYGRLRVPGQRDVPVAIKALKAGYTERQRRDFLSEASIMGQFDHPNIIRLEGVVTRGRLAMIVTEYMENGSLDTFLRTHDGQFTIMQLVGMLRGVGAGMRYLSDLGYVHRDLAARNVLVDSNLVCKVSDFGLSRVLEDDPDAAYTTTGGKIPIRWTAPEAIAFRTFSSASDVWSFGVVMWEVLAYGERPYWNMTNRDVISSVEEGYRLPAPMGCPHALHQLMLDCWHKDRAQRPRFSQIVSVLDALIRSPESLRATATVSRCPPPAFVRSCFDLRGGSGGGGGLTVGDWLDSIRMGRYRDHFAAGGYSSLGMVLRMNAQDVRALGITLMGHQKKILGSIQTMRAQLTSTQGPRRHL

Serine/threonine-protein kinase Chk2 (Homo sapiens), sequence (O96017 whole entry): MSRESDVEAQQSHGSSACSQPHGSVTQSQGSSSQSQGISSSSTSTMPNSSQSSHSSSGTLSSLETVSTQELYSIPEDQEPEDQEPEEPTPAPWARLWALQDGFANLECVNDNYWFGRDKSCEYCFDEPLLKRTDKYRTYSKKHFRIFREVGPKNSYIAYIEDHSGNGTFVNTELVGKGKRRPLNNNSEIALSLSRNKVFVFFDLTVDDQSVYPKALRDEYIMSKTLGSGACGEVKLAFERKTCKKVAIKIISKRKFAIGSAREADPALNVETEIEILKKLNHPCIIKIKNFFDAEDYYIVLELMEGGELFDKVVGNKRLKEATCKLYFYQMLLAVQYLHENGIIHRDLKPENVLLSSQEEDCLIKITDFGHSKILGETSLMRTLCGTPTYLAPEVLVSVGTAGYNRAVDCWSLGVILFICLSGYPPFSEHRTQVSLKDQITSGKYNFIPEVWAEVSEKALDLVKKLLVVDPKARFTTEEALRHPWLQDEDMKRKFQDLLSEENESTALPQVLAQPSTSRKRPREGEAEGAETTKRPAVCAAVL

`COc1cc(Nc2nc(C)cc(-c3cnn4nc(OC)ccc34)n2)cc(C(F)(F)F)c1` gave a % of control [1] of 100%.

Work on `N#Cc1cccc(-c2c[nH]c3ncnc(N4CCOCC4)c23)c1` yielded a % of control [2] of 100%.

In the case of `O[C@H]1CC[C@H](Nc2ncc3nc(Nc4c(F)cc(F)cc4F)n([C@H]4CCOC4)c3n2)CC1`, the % of control [3] is reported as 100%.

`CC[C@@H]1[C@H](F)C(=O)N[C@@H]1COc1nccc2cc(C(N)=O)c(OC)cc12` [ZIMLOVISERTIB] showed a % of inhibition [4] of 22.6%.

Work on `CCC(=O)N1CCN(c2ccc(-n3c(=O)ccc4cnc5ccc(-c6cnc7ccccc7c6)cc5c43)cc2C(F)(F)F)CC1` yielded a % of control [5] of 71%.
